Results taken from patent US20070249988A1, “Electrotransport Delivery of Nesiritide” (ALZA CORPORATION, priority 2006, published 2007).

Legend:
[1] = Circular dichroic spectrometry (CD), secondary structure; type: physicochemical
Protocol: Circular dichroic spectrometry was used to assess the amount of secondary structure present in nesiritide under aqueous, low ionic strength conditions. In addition, changes in the value calculated for mean residual ellipticity were analyzed to determine if secondary structure, specifically α-helix, could be induced upon the addition of 2,2,2-trifluoroethanol (TFE) or high salt, or both, to nesiritide in aqueous solution at 0.8 mg/mL.
Several methods have been used to estimate the secondary structural components of proteins from the CD spectra. The techniques have been applied to peptide spectra with varying degrees of success (Sreerama, N., Woody, R. W. A Self-Consistent method for the Analysis of Protein Secondary Structure from Circular Dichroism, Analytical Biochemistry, 1993; 209 32-44; Yang, J. T. et al. Separation and Analysis of Peptides and Proteins, Methods Enzymology, 1986; 130 208-269). Computer programs were used to analyze the data from CD scans. Mean residue ellipticity ([θ]nm) was computed at each wavelength and compared to reference spectra to estimate the relative amounts of helix, sheet, turn and aperiodic secondary structure.
The secondary structure assumed by nesiritide in an aqueous environment and induced by the addition of TFE, NaCl or both, were analyzed by CD. The peptide was studied at both 32 and 20° C. The peptide was studied at two concentrations: 0.2 mg/mL (20° C.) to allow data to be obtained at wavelengths below 200 nm, and at 0.8 mg/mL (32° C.) to increase any tendency toward self association. The CD ellipticity values at 222 nm have been interpreted to best reflect the amount of α-helix. The fully helical peptide or protein would have [θ]222nm of −32,000° cm^2, while the peptide lacking secondary structure would have a value of ˜2400° cm^2.
The use of the lower concentration, with a 2 mm path, allowed data to be collected down to 197 nm. The difference spectrum (FIG. 1B) was resolved into component gaussian bands (Holladay, L. A., Savage, C. R., Cohen, S., Puett, D. Biochemistry, 1976; 15 2624-2633; Holladay, L. A., Hammonds, R. G., Jr., Puett, D. Biochemistry, 1974; 13 1653-1661) in order to estimate the amount of α-helix and β-sheet formed. Estimates of secondary structure were made by computing the ratio of the observed rotational strength (R cgs) with those for poly-L lysine in either the α-helical or β-sheet form. The table below gives the parameters of the resolved gaussians, and the estimates of secondary structure. Nesiritide in 40% TFE probably exists as a mixture of conformers.

[2] = Stability on exposure to human epidermis; type: in vitro ADME
Protocol: The peptide was incubated in various buffer systems, both with and without human epidermis, at concentrations to be used for donor solutions. Experiments were conducted at 32° C. for 8 hours and 24 hours. The solutions were separated into portions and analyzed by RP-HPLC using the conditions described in the table below, both directly and after dilution to give a concentration of nesiritide at ˜100 μg/mL. In some cases, donor solutions were also removed and analyzed following ET Flux experiments.

[3] = Sedimentation equilibrium analytical ultracentrifugation (XLA), self-association; type: physicochemical; design: M(1 − vbar * p) observed: unit not given beside the values; conditions: for Residual Pattern / M(1 − vbar * p) observed: 10 mM ionic; for M(1 − vbar * p) observed: 32° C., 44,000 rpm
Protocol: Nesiritide's tendency towards self-association was assessed using sedimentation equilibrium analytical ultracentrifugation (XLA). An increase in the concentration of peptide in the donor formulation usually is expected to produce an increase in the rate of transport. With many peptides, raising the peptide concentration in solution will also heighten any tendency toward self-association. The conditions of the donor formulation are selected to maximize delivery and minimize aggregation. The development of peptide aggregates in solution can be determined directly by analytical ultracentrifugation. The sensitivity of detection requires at least 5% of the peptide exist as an aggregate.
Solutions of nesiritide at pH 6 and 7, (10 mM ionic imidazole) and pH 8 (10 mM ionic serinamide) were analyzed by sedimentation equilibrium ultracentrifugation. Samples were centrifuged to equilibrium at 44,000 rpm at 32° C., overnight. Absorbance as a function of radial position was determined at 258 nm.
When a highly charged peptide, such as nesiritide at pH 7, is formulated in a low ionic strength buffer, it will behave in a nonideal manner. Under such conditions, the apparent buoyant molecular weight will be lowered because of charge-charge repulsion. Theory has not been developed to estimate the magnitude of this effect when the bulk of the solution ionic strength arises from the peptide and its counter ions (as opposed to the case where the buffer ions contribute the majority of the ionic strength). The calculated value for M(1−vbar*ρ), given in the table below, was based on the behavior expected under ideal conditions.

[4] = In use stability of hydrogel formulations under electrotransport conditions (HPLC); type: physicochemical; conditions: hydrogel formulation, over 24 hours, at 0.1 mA/cm^2 and 32° C.
Protocol: In vitro electrotransport flux experiments were conducted using either synthetic polymeric Nulepore membranes or heat separated human cadaver epidermis. Custom-built horizontal diffusion cells were used for all in vitro skin flux experiments. Silver and silver chloride electrodes were used to apply current across the cell. Nesiritide hydrogels were placed between the silver anode and human heat-separated epidermis. In addition, a PVOH hydrogel containing a polymeric chloride source was placed between the silver anode and the drug hydrogel. A 1/10 dilution of Dulbecco's phosphate buffered saline (0.015 M NaCl) served as the receptor solution, which was continuously pumped through the receptor compartment. At multiple time points, receptor samples for HPLC analysis were collected using a custom-built, automated Hanson Research Microette™ collection system.
The receptor samples were analyzed for nesiritide using a HPLC assay. In addition, as show in FIGS. 6B and 7B, formulations were also extracted for nesiritide and analyzed via a HPLC assay after use in a flux experiment.

[5] = 40% TFE difference spectrum, 0.2 mg/mL, 20° C., pH 7, 10 mM ionic cacodylate, 2 mm path
[6] = 3 mg/mL (~1 mM), pH 6 (imidazole)
[7] = 3 mg/mL (~1 mM), pH 7 (imidazole)
[8] = 3 mg/mL (~1 mM), pH 8 (serinamide)
[9] = 10 mg/mL (~3 mM), pH 7 (imidazole)

In the case of `CC[C@H](C)[C@@H]1NC(=O)[C@H](CCCNC(=N)N)NC(=O)[C@H](CC(=O)O)NC(=O)[C@H](CCSC)NC(=O)[C@H](CCCCN)NC(=O)[C@H](CCCNC(=N)N)NC(=O)CNC(=O)[C@H](Cc2ccccc2)NC(=O)[C@@H](NC(=O)CNC(=O)[C@H](CO)NC(=O)CNC(=O)[C@H](CCC(N)=O)NC(=O)[C@@H](NC(=O)[C@H](CCSC)NC(=O)[C@H](CCCCN)NC(=O)[C@@H]2CCCN2C(=O)[C@@H](N)CO)C(C)C)CSSC[C@@H](C(=O)N[C@@H](CCCCN)C(=O)N[C@H](C(=O)N[C@@H](CC(C)C)C(=O)N[C@@H](CCCNC(=N)N)C(=O)N[C@@H](CCCNC(=N)N)C(=O)N[C@@H](Cc2c[nH]cn2)C(=O)O)C(C)C)NC(=O)CNC(=O)[C@H](CC(C)C)NC(=O)CNC(=O)[C@H](CO)NC(=O)[C@H](CO)NC(=O)[C@H](CO)NC(=O)[C@H](CO)NC1=O` [Nesiritide, nesiritide], the “[θ]222nm mean residue ellipticity” value ([1]; 0.8 mg/mL (1 mm path), pH 5.5 unbuffered, in water) is reported as −1984 deg cm^2 dmol^−1, the “[θ]222nm mean residue ellipticity” value ([1]; 32° C., 40% or 80% TFE or 1.8 M NaCl) is reported as roughly 3200 ° cm^2 dmol^−1 and the “% Structure Estimate, α-Helix n → Π* (222 nm)” value [1, 5] is reported as 6.4%. The “% Structure Estimate, α-Helix Π → Π* (208 nm)” value [1, 5] was 5.0%, the “% Structure Estimate, β-Sheet n → Π* (215 nm)” value [1, 5] was 5.1% and the resistance to destruction ([2]; following exposure to human epidermis) was “quite resistant to destruction”. For the same molecule, the “stability with added human skin” value ([2]; pH 7, 24-hour, 32° C., with added human skin) was “no destruction”, the “Residual Pattern” value [3, 6] was “nonideal” and the “M(1 − vbar * p) observed” value [3, 6] was 630. The “Residual Pattern” value [3, 7] was “flat”, the “M(1 − vbar * p) observed” value [3, 7] was 644 and the “Residual Pattern” value [3, 8] was “polydisperse”. The “M(1 − vbar * p) observed” value [3, 8] was 884, the “Residual Pattern” value [3, 9] was “nonideal” and the “M(1 − vbar * p) observed” value [3, 9] was 703. For the same molecule, the self-association ([3]; all conditions tested, by ultracentrifugation) was “no indication of self-association”, the association state ([3]; highest concentration analyzed, 3 mM, 10 mg/mL at pH 7 in 10 mM ionic buffer) was “remained monomeric” and the “in use stability under electrotransport conditions” value [4] was “sufficient stability”.
